Results: paper PMC12203311, “Design, synthesis, in silico and in vitro evaluation of pyrrole–indole hybrids as dual tubulin and aromatase inhibitors with potent anticancer activities” (RSC Advances, 2025)

Tests used:
[1] = system: CAKI-1; test: NCI60 five-dose screen; format: cell-based; details: Homo sapiens, CAKI-1, renal cancer; for CC50: read-out: LC50 (the source's name)
[2] = system: PC-3; test: NCI60 five-dose screen; format: cell-based; details: Homo sapiens, PC-3, prostate cancer; for CC50: read-out: LC50 (the source's name)
[3] = system: OVCAR-3; test: NCI60 five-dose screen; format: cell-based; details: Homo sapiens, OVCAR-3, ovarian cancer; for CC50: read-out: LC50 (the source's name)
[4] = system: HOP-62; test: NCI60 five-dose screen; format: cell-based; details: Homo sapiens, HOP-62, NSC lung cancer; for CC50: read-out: LC50 (the source's name)
[5] = system: A498; test: NCI60 five-dose screen; format: cell-based; details: Homo sapiens, A498, renal cancer; for CC50: read-out: LC50 (the source's name)
[6] = system: SF-539; test: NCI60 five-dose screen; format: cell-based; details: Homo sapiens, SF-539, CNS cancer; for CC50: read-out: LC50 (the source's name)
[7] = system: HOP-92; test: NCI60 five-dose screen; format: cell-based; details: Homo sapiens, HOP-92, NSC lung cancer; for CC50: read-out: LC50 (the source's name)
[8] = Cytotoxicity MTT assay, L929; format: cell-based, mouse; details: mouse, L929 fibroblast cells; MTT, 48 hours
Experimental: (§1) T47D (ATCC HTB-133) was purchased from Biomedia (Thailand) Co., LTD. L929 (ATCC CCL-1) was received as a gift from Prof. Tanapat Palaga, Department of Microbiology, Faculty of Science, Chulalongkorn University, Bangkok, Thailand. The cells were cultured in Dulbecco's Modified Eagle's Medium (DMEM; Gibco) supplemented with 10% fetal bovine serum (FBS; HyClone), 100 U mL^−1 penicillin and 100 µg mL^−1 streptomycin (Gibco) at 37 °C with 5% CO2.
(§2) The antiproliferative activity was determined by MTT assay. Briefly, the cells were plated into a 96-well microplate at the density of 10 000 cells per well. The cells were allowed to grow overnight before treated with the solutions of compounds in culture medium at the designated concentrations for 48 hours. The medium was then replaced with MTT solution (0.5 mg mL^−1 MTT in culture medium) and incubated for 3 hours. A 100 µL of DMSO was used to dissolve the produced formazan. Absorbance at 570 nm was then measured using a microplate reader (Varioskan™ LUX multimode microplate reader, Thermo Scientific™). Percent viability was calculated relative to the vehicle control (DMSO).

[9] = system: L929 normal mouse fibroblast cell line; test: Cytotoxicity MTT assay, L929; format: cell-based; details: for Selectivity index (SI): IC50 (L929)/IC50 (T47D); for L929 cell survival / L929 toxicity at single concentration: 50 µM single concentration
Experimental: as §1, §2

[10] = system: HCT-116; test: NCI60 five-dose screen; format: cell-based; details: Homo sapiens, HCT-116, colon cancer; for CC50: read-out: LC50 (the source's name)
[11] = system: T47D breast cancer cell line; test: Cytotoxicity MTT assay, T47D; format: cell-based, human; details: Homo sapiens, T47D; MTT, 48 hours
Experimental: as §1, §2

[12] = system: NCI-H226; test: NCI60 five-dose screen; format: cell-based; details: Homo sapiens, NCI-H226, NSC lung cancer; for CC50: read-out: LC50 (the source's name)
[13] = system: BT-549; test: NCI60 five-dose screen; format: cell-based; details: Homo sapiens, BT-549, breast cancer; for CC50: read-out: LC50 (the source's name)
[14] = system: NCI-H460; test: NCI60 five-dose screen; format: cell-based; details: Homo sapiens, NCI-H460, NSC lung cancer; for CC50: read-out: LC50 (the source's name)
[15] = system: LOX IMVI; test: NCI60 five-dose screen; format: cell-based; details: Homo sapiens, melanoma; for CC50: read-out: LC50 (the source's name)
[16] = system: SNB-75; test: NCI60 five-dose screen; format: cell-based; details: Homo sapiens, SNB-75, CNS cancer; for CC50: read-out: LC50 (the source's name)
[17] = system: ACHN; test: NCI60 five-dose screen; format: cell-based; details: Homo sapiens, renal cancer; for CC50: read-out: LC50 (the source's name)
[18] = system: HT29; test: NCI60 five-dose screen; format: cell-based; details: Homo sapiens, HT-29, HT29, colon cancer; for CC50: read-out: LC50 (the source's name)
[19] = system: HCT-15; test: NCI60 five-dose screen; format: cell-based; details: Homo sapiens, HCT-15, colon cancer; for CC50: read-out: LC50 (the source's name)
[20] = system: DU-145; test: NCI60 five-dose screen; format: cell-based; details: Homo sapiens, DU-145, prostate cancer; for CC50: read-out: LC50 (the source's name)
[21] = system: OVCAR-4; test: NCI60 five-dose screen; format: cell-based; details: Homo sapiens, OVCAR-4, ovarian cancer; for CC50: read-out: LC50 (the source's name)
[22] = system: A549/ATCC; test: NCI60 five-dose screen; format: cell-based; details: Homo sapiens, NSC lung cancer; for CC50: read-out: LC50 (the source's name)
[23] = system: K-562; test: NCI60 five-dose screen; format: cell-based; details: Homo sapiens, K562, K-562, leukemia; for CC50: read-out: LC50 (the source's name)

CCOC(=O)c1cc(/C=N/NC(=O)c2[nH]c3ccc(Br)cc3c2-c2ccccc2)c[nH]1 [Derivative 3v, Ethyl (E)-4-((2-(5-bromo-3-phenyl-1H-indole-2-carbonyl)hydrazono)methyl)-1H-pyrrole-2-carboxylate]
GI50 [1]: 3.2 µM
CC50 [1]: 40.2 µM
GI50 [2]: 4.07 µM
CC50 [2]: > 100 µM
GI50 [3]: 3.23 µM
CC50 [3]: 33.4 µM
GI50 [4]: 6.66 µM
CC50 [4]: 69.2 µM
GI50 [5]: 12.9 µM
CC50 [5]: 52.1 µM
GI50 [6]: 2.02 µM
CC50 [6]: 13.5 µM
GI50 [7]: 7.99 µM
CC50 [7]: > 100 µM
IC50 at 48 h [8]: 90.1 ± 40.3 µM
Selectivity index (SI) [9]: 3.62
GI50 [10]: 3.42 µM
CC50 [10]: 50.5 µM
IC50 [11]: 24.9 ± 8.4 µM
GI50 [12]: 4.21 µM
CC50 [12]: 46.2 µM
GI50 [13]: 13.4 µM
CC50 [13]: 60.2 µM
GI50 [14]: 3.49 µM
CC50 [14]: 34.3 µM
GI50 [15]: 4.31 µM
CC50 [15]: 41.1 µM
GI50 [16]: 1.95 µM
CC50 [16]: 90.6 µM
GI50 [17]: 4.87 µM
CC50 [17]: 49.9 µM
GI50 [18]: 3.33 µM
CC50 [18]: 35.3 µM
GI50 [19]: 3.21 µM
CC50 [19]: 35.7 µM
GI50 [20]: 3.36 µM
CC50 [20]: 33.4 µM
GI50 [21]: 9 µM
CC50 [21]: 52.8 µM
GI50 [22]: 4.37 µM
CC50 [22]: 44.2 µM
GI50 [23]: 4.59 µM
CC50 [23]: > 100 µM

O=C(N/N=C/c1[nH]ccc1Cl)c1[nH]c2ccc(Br)cc2c1-c1ccccc1 [Derivative 3g, (E)-5-Bromo-N′-((3-chloro-1H-pyrrol-2-yl)methylene)-3-phenyl-1H-indole-2-carbohydrazide]
GI50 [1]: 0.445 µM
CC50 [1]: 36.9 µM
GI50 [2]: 0.826 µM
CC50 [2]: 63.6 µM
GI50 [3]: 0.409 µM
CC50 [3]: 34.9 µM
GI50 [4]: 3.8 µM
CC50 [4]: 60.8 µM
GI50 [5]: 10.6 µM
CC50 [5]: 49.3 µM
GI50 [6]: 0.378 µM
CC50 [6]: 18.5 µM
GI50 [7]: 2.79 µM
CC50 [7]: 50.1 µM
IC50 at 48 h [8]: 20.1 ± 10.3 µM
Selectivity index (SI) [9]: 2.45
GI50 [10]: 0.467 µM
CC50 [10]: 79.9 µM
IC50 [11]: 8.2 ± 1.8 µM
GI50 [12]: 1.44 µM
CC50 [12]: 32.1 µM
GI50 [13]: 3.56 µM
CC50 [13]: 46.8 µM
GI50 [14]: 0.448 µM
CC50 [14]: 34.3 µM
GI50 [15]: 0.555 µM
CC50 [15]: 29.4 µM
GI50 [16]: 0.325 µM
CC50 [16]: 38.6 µM
GI50 [17]: 0.627 µM
CC50 [17]: 34.5 µM
GI50 [18]: 0.401 µM
CC50 [18]: 58.5 µM
GI50 [19]: 0.465 µM
CC50 [19]: 34.3 µM
GI50 [20]: 1.58 µM
CC50 [20]: 33.1 µM
GI50 [21]: 3.09 µM
CC50 [21]: 43.5 µM
GI50 [22]: 0.838 µM
CC50 [22]: 53.4 µM
GI50 [23]: 0.413 µM
CC50 [23]: > 100 µM

Cc1[nH]c(/C=N/NC(=O)c2[nH]c3ccc(Br)cc3c2-c2ccccc2)c(C)c1[N+](=O)[O-] [Derivative 3r, (E)-5-Bromo-N′-((3,5-dimethyl-4-nitro-1H-pyrrol-2-yl)methylene)-3-phenyl-1H-indole-2-carbohydrazide]
GI50 [1]: 2.29 µM
CC50 [1]: 33.1 µM
GI50 [2]: 2.85 µM
CC50 [2]: 45.5 µM
GI50 [3]: 1.77 µM
CC50 [3]: 10.4 µM
GI50 [4]: 2.09 µM
CC50 [4]: 11.7 µM
GI50 [5]: 2.35 µM
CC50 [5]: 27.6 µM
GI50 [6]: 3.51 µM
CC50 [6]: 35.7 µM
GI50 [7]: 2.51 µM
CC50 [7]: 45.8 µM
L929 cell survival [9]: > 80%
L929 toxicity at single concentration [9]: — ^c (No toxicity observed at 50 µM single concentration (>80% cell survival).)
GI50 [10]: 1.98 µM
CC50 [10]: 10.4 µM
IC50 [11]: 12.3 ± 0.3 µM
GI50 [12]: 3.78 µM
CC50 [12]: 40.6 µM
GI50 [13]: 2.74 µM
CC50 [13]: 30.6 µM
GI50 [14]: 1.87 µM
CC50 [14]: 8.05 µM
GI50 [15]: 1.63 µM
CC50 [15]: 5.73 µM
GI50 [16]: 2.19 µM
CC50 [16]: 21.5 µM
GI50 [17]: 3.3 µM
CC50 [17]: 33.4 µM
GI50 [18]: 1.84 µM
CC50 [18]: 6.67 µM
GI50 [19]: 2.41 µM
CC50 [19]: 26.4 µM
GI50 [20]: 3.48 µM
CC50 [20]: 34.9 µM
GI50 [21]: 1.97 µM
CC50 [21]: 18.8 µM
GI50 [22]: 3.19 µM
CC50 [22]: 35.6 µM
GI50 [23]: 2.69 µM
CC50 [23]: > 100 µM

Cn1cccc1/C=N/NC(=O)c1[nH]c2ccc(Br)cc2c1-c1ccccc1 [Derivative 3d, (E)-5-Bromo-N′-((1-methyl-1H-pyrrol-2-yl)methylene)-3-phenyl-1H-indole-2-carbohydrazide]
GI50 [1]: 0.255 µM
CC50 [1]: > 100 µM
GI50 [2]: 0.564 µM
CC50 [2]: > 100 µM
GI50 [3]: 0.246 µM
CC50 [3]: > 100 µM
GI50 [4]: 0.57 µM
CC50 [4]: > 100 µM
GI50 [5]: > 100 µM
CC50 [5]: > 100 µM
GI50 [6]: 0.217 µM
CC50 [6]: > 100 µM
GI50 [7]: 0.429 µM
CC50 [7]: > 100 µM
L929 cell survival [9]: > 80%
L929 toxicity at single concentration [9]: — ^c (No toxicity observed at 50 µM single concentration (>80% cell survival).)
GI50 [10]: 0.427 µM
CC50 [10]: > 100 µM
IC50 [11]: 1 ± 0.4 µM
GI50 [12]: 0.603 µM
CC50 [12]: > 100 µM
GI50 [13]: 2.81 µM
CC50 [13]: > 100 µM
GI50 [14]: 0.442 µM
CC50 [14]: > 100 µM
GI50 [15]: 0.494 µM
CC50 [15]: > 100 µM
GI50 [16]: 0.259 µM
CC50 [16]: > 100 µM
GI50 [17]: 0.175 µM
CC50 [17]: > 100 µM
GI50 [18]: 0.327 µM
CC50 [18]: > 100 µM
GI50 [19]: 0.228 µM
CC50 [19]: > 100 µM
GI50 [20]: 0.399 µM
CC50 [20]: > 100 µM
GI50 [21]: 0.637 µM
CC50 [21]: > 100 µM
GI50 [22]: 0.649 µM
CC50 [22]: > 100 µM
GI50 [23]: 0.327 µM
CC50 [23]: > 100 µM
